Test system: 967376-340-R-J2-PDC multicell spheroid viability
Assay: Anticancer human tumor 967376-340-R-J2-PDC patient-derived colon adenocarcinoma cell line growth inhibition [PI3K]
Conditions: for IC50: curve of first compound; for viability, T/C: stronger effect = lower value
How it was run: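 Agents were dosed from a top concentration near clinical Cmax (otherwise 10 microM) in half-log decrements, alone or combined with PI3K inhibitors. The spheroids contain tumor cells plus endothelial (HUVEC) and MSC stroma; viability is measured.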

[1] = second compound 0.0316 µM, first compound 0.0316 µM
[2] = second compound 0.0316 µM, first compound 0.1 µM
[3] = second compound 0.0316 µM, first compound 0.316 µM
[4] = second compound 0.0316 µM, first compound 1 µM
[5] = second compound 0.0316 µM, first compound 3.16 µM
[6] = second compound 0.0316 µM, first compound 10 µM
[7] = second compound 0.1 µM, first compound 0.0316 µM
[8] = second compound 0.1 µM, first compound 0.1 µM
[9] = second compound 0.1 µM, first compound 0.316 µM
[10] = second compound 0.1 µM, first compound 1 µM
[11] = second compound 0.1 µM, first compound 3.16 µM
[12] = second compound 0.1 µM, first compound 10 µM
[13] = second compound 0.316 µM, first compound 0.0316 µM
[14] = second compound 0.316 µM, first compound 0.1 µM
[15] = second compound 0.316 µM, first compound 0.316 µM
[16] = second compound 0.316 µM, first compound 1 µM
[17] = second compound 0.316 µM, first compound 3.16 µM
[18] = second compound 0.316 µM, first compound 10 µM
[19] = second compound 1 µM, first compound 0.0316 µM
[20] = second compound 1 µM, first compound 0.1 µM
[21] = second compound 1 µM, first compound 0.316 µM
[22] = second compound 1 µM, first compound 1 µM
[23] = second compound 1 µM, first compound 3.16 µM
[24] = second compound 1 µM, first compound 10 µM
[25] = second compound 3.16 µM, first compound 0.0316 µM
[26] = second compound 3.16 µM, first compound 0.1 µM
[27] = second compound 3.16 µM, first compound 0.316 µM
[28] = second compound 3.16 µM, first compound 1 µM
[29] = second compound 3.16 µM, first compound 3.16 µM
[30] = second compound 3.16 µM, first compound 10 µM
[31] = second compound 10 µM, first compound 0.0316 µM
[32] = second compound 10 µM, first compound 0.1 µM
[33] = second compound 10 µM, first compound 0.316 µM
[34] = second compound 10 µM, first compound 1 µM
[35] = second compound 10 µM, first compound 3.16 µM
[36] = second compound 10 µM, first compound 10 µM
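Note: spheroids exposed to agents for 7 days before read-out.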
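Throughout, for viability, T/C: luminescence used as surrogate of cell viability.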

## C=CC(=O)N1CCN(c2nc(=O)n(-c3c(C)ccnc3C(C)C)c3nc(-c4c(O)cccc4F)c(F)cc23)C(C)C1 (centres undefined) + Cc1nc(NC(=O)N2CCCC2C(N)=O)sc1-c1ccnc(C(C)(C)C(F)(F)F)c1
Second compound 0.0316 µM
  IC50: > 10 µM
Second compound 0.1 µM
  IC50: > 10 µM
Second compound 0.316 µM
  IC50: > 10 µM
Second compound 1 µM
  IC50: > 10 µM
Second compound 3.16 µM
  IC50: > 10 µM
Second compound 10 µM
  IC50: < 0.0316 µM
[1]
  viability, T/C: 85.5%
[2]
  viability, T/C: 85.2%
[3]
  viability, T/C: 86.6%
[4]
  viability, T/C: 84.6%
[5]
  viability, T/C: 91.7%
[6]
  viability, T/C: 102%
[7]
  viability, T/C: 91.9%
[8]
  viability, T/C: 85.8%
[9]
  viability, T/C: 75.6%
[10]
  viability, T/C: 84.6%
[11]
  viability, T/C: 100%
[12]
  viability, T/C: 74%
[13]
  viability, T/C: 73.3%
[14]
  viability, T/C: 74.5%
[15]
  viability, T/C: 62.5%
[16]
  viability, T/C: 94%
[17]
  viability, T/C: 91.3%
[18]
  viability, T/C: 69.8%
[19]
  viability, T/C: 65.5%
[20]
  viability, T/C: 65.7%
[21]
  viability, T/C: 57.3%
[22]
  viability, T/C: 66.6%
[23]
  viability, T/C: 66.1%
[24]
  viability, T/C: 76.5%
[25]
  viability, T/C: 61%
[26]
  viability, T/C: 52.9%
[27]
  viability, T/C: 64.4%
[28]
  viability, T/C: 56.8%
[29]
  viability, T/C: 77.7%
[30]
  viability, T/C: 53.3%
[31]
  viability, T/C: 46.9%
[32]
  viability, T/C: 44.7%
[33]
  viability, T/C: 44.9%
[34]
  viability, T/C: 56.3%
[35]
  viability, T/C: 48.7%
[36]
  viability, T/C: 42%

## Cn1nccc1Nc1nccc(-c2ccn(C(CO)c3ccc(Cl)c(F)c3)c(=O)c2)n1 (centres undefined) + Cc1nc(NC(=O)N2CCCC2C(N)=O)sc1-c1ccnc(C(C)(C)C(F)(F)F)c1
Second compound 0.0316 µM
  IC50: > 10 µM
Second compound 0.1 µM
  IC50: > 10 µM
Second compound 0.316 µM
  IC50: > 10 µM
Second compound 1 µM
  IC50: > 10 µM
Second compound 3.16 µM
  IC50: > 10 µM
Second compound 10 µM
  IC50: < 0.0316 µM
[1]
  viability, T/C: 66.3%
[2]
  viability, T/C: 104%
[3]
  viability, T/C: 97.2%
[4]
  viability, T/C: 83.5%
[5]
  viability, T/C: 87.3%
[6]
  viability, T/C: 85.7%
[7]
  viability, T/C: 70.2%
[8]
  viability, T/C: 67%
[9]
  viability, T/C: 85.1%
[10]
  viability, T/C: 76.7%
[11]
  viability, T/C: 72.4%
[12]
  viability, T/C: 75.5%
[13]
  viability, T/C: 65.4%
[14]
  viability, T/C: 70.9%
[15]
  viability, T/C: 63.8%
[16]
  viability, T/C: 82%
[17]
  viability, T/C: 84.2%
[18]
  viability, T/C: 60.7%
[19]
  viability, T/C: 66.6%
[20]
  viability, T/C: 61%
[21]
  viability, T/C: 60.1%
[22]
  viability, T/C: 67.8%
[23]
  viability, T/C: 64.7%
[24]
  viability, T/C: 53.5%
[25]
  viability, T/C: 46.1%
[26]
  viability, T/C: 61.4%
[27]
  viability, T/C: 56.3%
[28]
  viability, T/C: 58.5%
[29]
  viability, T/C: 60.8%
[30]
  viability, T/C: 77.1%
[31]
  viability, T/C: 39.9%
[32]
  viability, T/C: 47.6%
[33]
  viability, T/C: 42.2%
[34]
  viability, T/C: 36.1%
[35]
  viability, T/C: 53.7%
[36]
  viability, T/C: 32.3%
